According to PMC11435058, “Synthesis of New Thiazole-Privileged Chalcones as Tubulin Polymerization Inhibitors with Potential Anticancer Activities” (Pharmaceuticals, 2024):

Legend:
SK-OV-3 = assay: NCI-60 anticancer screen (SRB; single dose and five doses); details: Homo sapiens; for activity at 10 µM: SK-OV-3, 48 h, read-out: Growth Percentage
RXF 393 = assay: as above; details: Homo sapiens; for activity at 10 µM: RXF 393, 48 h, read-out: Growth Percentage
786-0 = assay: as above; details: Homo sapiens; for activity at 10 µM: 786-0, 48 h, read-out: Growth Percentage
SF-539 = assay: as above; details: Homo sapiens; for activity at 10 µM: SF-539, 48 h, read-out: Growth Percentage
SF-268 = assay: as above; details: Homo sapiens; for activity at 10 µM: SF-268, 48 h, read-out: Growth Percentage
MDA-MB-435 = assay: as above; details: Homo sapiens; for activity at 10 µM: MDA-MB-435, 48 h, read-out: Growth Percentage
MDA-MB-231/ATCC = assay: as above; details: Homo sapiens; for activity at 10 µM: MDA-MB-231, 48 h, read-out: Growth Percentage
CAKI-1 = assay: as above; details: Homo sapiens; for activity at 10 µM: CAKI-1, 48 h, read-out: Growth Percentage
SNB-19 = assay: cells; details: Homo sapiens; for activity at 10 µM: SNB-19, 48 h, read-out: Growth Percentage
NCI-H322M = assay: NCI-60 anticancer screen (SRB; single dose and five doses); details: Homo sapiens; for activity at 10 µM: 48 h, read-out: Growth Percentage
NCI-H522 = assay: as above; details: Homo sapiens; for activity at 10 µM: NCI-H522, 48 h, read-out: Growth Percentage
U251 = assay: as above; details: Homo sapiens; for activity at 10 µM: U-251, 48 h, read-out: Growth Percentage
NCI-H226 = assay: as above; details: Homo sapiens; for activity at 10 µM: NCI-H226, 48 h, read-out: Growth Percentage
UO-31 = assay: as above; details: Homo sapiens; for activity at 10 µM: UO-31, 48 h, read-out: Growth Percentage
HS 578T = assay: as above; details: Homo sapiens; for activity at 10 µM: 48 h, read-out: Growth Percentage
HOP-62 = assay: as above; details: Homo sapiens; for activity at 10 µM: HOP-62, 48 h, read-out: Growth Percentage
SW-620 = assay: as above; details: Homo sapiens; for activity at 10 µM: SW-620, 48 h, read-out: Growth Percentage
A549/ATCC = assay: as above; details: Homo sapiens; for activity at 10 µM: A549, 48 h, read-out: Growth Percentage
OVCAR-4 = assay: as above; details: Homo sapiens; for activity at 10 µM: OVCAR-4, 48 h, read-out: Growth Percentage
HCT-15 = assay: as above; details: Homo sapiens; for activity at 10 µM: HCT-15, 48 h, read-out: Growth Percentage
SK-MEL-2 = assay: as above; details: Homo sapiens; for activity at 10 µM: SK-MEL-2, 48 h, read-out: Growth Percentage
TK-10 = assay: as above; details: Homo sapiens; for activity at 10 µM: TK-10, 48 h, read-out: Growth Percentage
SNB-75 = assay: as above; details: Homo sapiens, SNB-75, 48 h, read-out: Growth Percentage
MALME-3M = assay: as above; details: Homo sapiens; for activity at 10 µM: 48 h, read-out: Growth Percentage
OVCAR-3 = assay: cells; details: Homo sapiens; for activity at 10 µM: OVCAR-3, 48 h, read-out: Growth Percentage
RPMI-8226 = assay: NCI-60 anticancer screen (SRB; single dose and five doses); details: Homo sapiens; for activity at 10 µM: RPMI-8226, 48 h, read-out: Growth Percentage
SR = assay: as above; details: Homo sapiens; for activity at 10 µM: 48 h, read-out: Growth Percentage
BT-549 = assay: as above; details: Homo sapiens; for activity at 10 µM: BT-549, 48 h, read-out: Growth Percentage
M14 = assay: as above; details: Homo sapiens; for activity at 10 µM: M14, 48 h, read-out: Growth Percentage

Cc1ccc(/C=C/C(=O)c2sc(=S)[nH]c2C)cc1 [2j, (E)-1-(4-Methyl-2-Thioxo-2,3-Dihydrothiazol-5-yl)-3-(p-Tolyl)Prop-2-En-1-One]
activity at 10 µM (SK-OV-3): 102%
activity at 10 µM (RXF 393): 55.4%
activity at 10 µM (786-0): 70.7%
activity at 10 µM (SF-539): 43%
activity at 10 µM (SF-268): 86.9%
activity at 10 µM (MDA-MB-435): 39%
activity at 10 µM (MDA-MB-231/ATCC): 71.7%
activity at 10 µM (CAKI-1): 43.4%
activity at 10 µM (SNB-19): 65.5%
activity at 10 µM (NCI-H322M): 62.1%
activity at 10 µM (NCI-H522): 60.2%
activity at 10 µM (U251): 60.4%
activity at 10 µM (NCI-H226): 93.8%
activity at 10 µM (UO-31): 46.8%
activity at 10 µM (HS 578T): 101%
activity at 10 µM (HOP-62): 54.1%
activity at 10 µM (SW-620): 35.9%
activity at 10 µM (A549/ATCC): 74.3%
activity at 10 µM (OVCAR-4): 59.2%
activity at 10 µM (HCT-15): 38.6%
activity at 10 µM (SK-MEL-2): 89.8%
activity at 10 µM (TK-10): 79.8%
activity at 10 µM (SNB-75): 78.1%
activity at 10 µM (MALME-3M): 84.7%
activity at 10 µM (OVCAR-3): 15%
activity at 10 µM (RPMI-8226): 18.9%
activity at 10 µM (SR): 45.5%
activity at 10 µM (BT-549): 56.1%
activity at 10 µM (M14): 83%

Cc1[nH]c(=S)sc1C(=O)/C=C/c1ccc(Br)cc1 [2g, (E)-3-(4-Bromophenyl)-1-(4-Methyl-2-Thioxo-2,3-Dihydrothiazol-5-yl)Prop-2-En-1-One]
GI50 (SK-OV-3; SK-OV-3): 13.8 µM
activity at 10 µM (SK-OV-3): 96.7%
CC50 (SK-OV-3; SK-OV-3, read-out: LC50): 74.9 µM
IC (TGI) (SK-OV-3; SK-OV-3, read-out: TGI): 32.2 µM
GI50 (RXF 393; RXF 393): 2.58 µM
activity at 10 µM (RXF 393): 16%
CC50 (RXF 393; RXF 393, read-out: LC50): 33 µM
IC (TGI) (RXF 393; RXF 393, read-out: TGI): 9.43 µM
GI50 (786-0; 786-0): 3.33 µM
activity at 10 µM (786-0): 25%
CC50 (786-0; 786-0, read-out: LC50): 41.8 µM
IC (TGI) (786-0; 786-0, read-out: TGI): 13.3 µM
GI50 (SF-539; SF-539): 2 µM
activity at 10 µM (SF-539): -25.3%
IC (TGI) (SF-539; SF-539, read-out: TGI): 4.67 µM
GI50 (SF-268; SF-268): 13.5 µM
activity at 10 µM (SF-268): 46.1%
CC50 (SF-268; SF-268, read-out: LC50): 64.2 µM
IC (TGI) (SF-268; SF-268, read-out: TGI): 29.5 µM
GI50 (MDA-MB-435; MDA-MB-435): 4.12 µM
activity at 10 µM (MDA-MB-435): 8.26%
CC50 (MDA-MB-435; MDA-MB-435, read-out: LC50): 45.1 µM
IC (TGI) (MDA-MB-435; MDA-MB-435, read-out: TGI): 16.7 µM
GI50 (MDA-MB-231/ATCC; MDA-MB-231): 10.9 µM
activity at 10 µM (MDA-MB-231/ATCC): 9.49%
CC50 (MDA-MB-231/ATCC; MDA-MB-231, read-out: LC50): 50.9 µM
IC (TGI) (MDA-MB-231/ATCC; MDA-MB-231, read-out: TGI): 23.5 µM
GI50 (CAKI-1; CAKI-1): 10 µM
activity at 10 µM (CAKI-1): 32.8%
CC50 (CAKI-1; CAKI-1, read-out: LC50): 47.2 µM
IC (TGI) (CAKI-1; CAKI-1, read-out: TGI): 21.8 µM
GI50 (SNB-19; SNB-19): 3.47 µM
activity at 10 µM (SNB-19): 32.7%
CC50 (SNB-19; SNB-19, read-out: LC50): 37.7 µM
IC (TGI) (SNB-19; SNB-19, read-out: TGI): 13.4 µM
GI50 (NCI-H322M): 3.76 µM
activity at 10 µM (NCI-H322M): 44.1%
CC50 (NCI-H322M; read-out: LC50): 41.3 µM
IC (TGI) (NCI-H322M; read-out: TGI): 15.2 µM
GI50 (NCI-H522; NCI-H522): 3.37 µM
activity at 10 µM (NCI-H522): 21.1%
CC50 (NCI-H522; NCI-H522, read-out: LC50): 41.2 µM
IC (TGI) (NCI-H522; NCI-H522, read-out: TGI): 14.3 µM
GI50 (U251; U-251): 2.87 µM
activity at 10 µM (U251): 15.5%
CC50 (U251; U-251, read-out: LC50): 39.7 µM
IC (TGI) (U251; U-251, read-out: TGI): 11.7 µM
GI50 (NCI-H226; NCI-H226): 4.13 µM
activity at 10 µM (NCI-H226): 54.5%
CC50 (NCI-H226; NCI-H226, read-out: LC50): > 100 µM
IC (TGI) (NCI-H226; NCI-H226, read-out: TGI): 25.4 µM
GI50 (UO-31; UO-31): 2.46 µM
activity at 10 µM (UO-31): 22.4%
IC (TGI) (UO-31; UO-31, read-out: TGI): 13.5 µM
GI50 (HS 578T): 10.4 µM
activity at 10 µM (HS 578T): 74.6%
CC50 (HS 578T; read-out: LC50): > 100 µM
IC (TGI) (HS 578T; read-out: TGI): 33 µM
GI50 (HOP-62; HOP-62): 3.94 µM
activity at 10 µM (HOP-62): 11.9%
CC50 (HOP-62; HOP-62, read-out: LC50): 61.2 µM
IC (TGI) (HOP-62; HOP-62, read-out: TGI): 14 µM
GI50 (SW-620; SW-620): 2.82 µM
activity at 10 µM (SW-620): 5.7%
CC50 (SW-620; SW-620, read-out: LC50): 41.6 µM
IC (TGI) (SW-620; SW-620, read-out: TGI): 11.7 µM
GI50 (A549/ATCC; A549): 11.7 µM
activity at 10 µM (A549/ATCC): 64.1%
CC50 (A549/ATCC; A549, read-out: LC50): 55.3 µM
IC (TGI) (A549/ATCC; A549, read-out: TGI): 25.4 µM
GI50 (OVCAR-4; OVCAR-4): 10.7 µM
activity at 10 µM (OVCAR-4): 49.5%
CC50 (OVCAR-4; OVCAR-4, read-out: LC50): 48.5 µM
IC (TGI) (OVCAR-4; OVCAR-4, read-out: TGI): 22.8 µM
GI50 (HCT-15; HCT-15): 2.66 µM
activity at 10 µM (HCT-15): 5.48%
CC50 (HCT-15; HCT-15, read-out: LC50): 36.4 µM
IC (TGI) (HCT-15; HCT-15, read-out: TGI): 10 µM
GI50 (SK-MEL-2; SK-MEL-2): 5.87 µM
activity at 10 µM (SK-MEL-2): 62.3%
CC50 (SK-MEL-2; SK-MEL-2, read-out: LC50): 47.9 µM
IC (TGI) (SK-MEL-2; SK-MEL-2, read-out: TGI): 19.5 µM
GI50 (TK-10; TK-10): 3.04 µM
activity at 10 µM (TK-10): 37.8%
CC50 (TK-10; TK-10, read-out: LC50): 35.2 µM
IC (TGI) (TK-10; TK-10, read-out: TGI): 11.8 µM
activity at 10 µM (SNB-75): 2.52%
GI50 (MALME-3M): 12.5 µM
activity at 10 µM (MALME-3M): 72.9%
CC50 (MALME-3M; read-out: LC50): 67.2 µM
IC (TGI) (MALME-3M; read-out: TGI): 29 µM
GI50 (OVCAR-3; OVCAR-3): 1.88 µM
activity at 10 µM (OVCAR-3): -12.3%
CC50 (OVCAR-3; OVCAR-3, read-out: LC50): 9.7 µM
IC (TGI) (OVCAR-3; OVCAR-3, read-out: TGI): 4.27 µM
GI50 (RPMI-8226; RPMI-8226): 2.29 µM
activity at 10 µM (RPMI-8226): 1.4%
CC50 (RPMI-8226; RPMI-8226, read-out: LC50): > 100 µM
IC (TGI) (RPMI-8226; RPMI-8226, read-out: TGI): > 100 µM
GI50 (SR): 2.83 µM
activity at 10 µM (SR): 8.46%
CC50 (SR; read-out: LC50): > 100 µM
IC (TGI) (SR; read-out: TGI): 23.2 µM
GI50 (BT-549; BT-549): 2.6 µM
activity at 10 µM (BT-549): 19.5%
IC (TGI) (BT-549; BT-549, read-out: TGI): 7.28 µM
GI50 (M14; M14): 9.02 µM
activity at 10 µM (M14): 74.5%
IC (TGI) (M14; M14, read-out: TGI): 22.9 µM
